The record followed here is patent US20050165080A1, “Method for the treatment of diseases requiring inhibition or a reduction in the activity of pH value-regulating bicarbonate transporter proteins” (Solvay Pharmaceuticals GmbH, priority 2002, published 2005).

The test system of test [1] is Na+-independent chloride-bicarbonate (Cl−/HCO3−) exchanger (AE) protein. Briefly: Intracellular pH recovery after alkalization (NH4Cl pulse) in BCECF-laden adult cardiac fibroblasts. To be noted: for recovery after the intracellular alkalization, compared with guanabenz-pre-treated or non-pre-treated cells / percentage of the change in pH value still present, relative to the maximum alkaline pH value reached, after 5 min / percentage of the change in pH value still present, relative to the maximum alkaline pH value reached, after 8 min: 30 min preincubation; for recovery after the intracellular alkalization, compared with guanabenz-pre-treated or non-pre-treated cells: moxonidine 10^−6 to 10^−9 mole/liter, H2-DIDS 10^−3 mole/liter, NH4Cl pulse; for percentage of the change in pH value still present, relative to the maximum alkaline pH value reached, after 5 min / percentage of the change in pH value still present, relative to the maximum alkaline pH value reached, after 8 min: 10^−6 mole/liter, 5 mmole/liter NH4Cl pulse, cardiac fibroblasts, mean and standard deviation from 3 to 5 experiments; for percentage of the change in pH value still present, relative to the maximum alkaline pH value reached, after 5 min: 5 min after maximum alkaline pH; for percentage of the change in pH value still present, relative to the maximum alkaline pH value reached, after 8 min: 8 min after maximum alkaline pH. It is filed as cell-based, Wistar rats. The method, then:
(§1) The investigations were carried out on cardiac fibroblasts isolated from the left ventricle of the myocardium of 6-week-old Wistar rats. Myocardial tissue was placed in HBSS medium without Ca^2+ and Mg^2+ (GibcoBRL), cut into small pieces which were incubated with 1 mg/ml collagenase A (Roche) with continuous shaking for 10 minutes in HBSS medium. The first supernatant was discarded and the incubation operation was repeated three times, the supernatant being collected each time in a tube with 5 ml HBSS medium. After centrifuging at 160×g for 10 min, the pellet was re-suspended in a flask with DMEM (GibcoBRL), to which 10% foetal calf serum (FCS, from Sigma) was added. […] The flasks were incubated in an air-humidified incubator with 5% CO2 and at 37° C. Cardiac fibroblasts, which grew in a typical monolayer, were cultivated by standard cell culture techniques and at subconfluence were transferred into new flasks in a 1:3 ratio [Brilla et al. (1994) Collagen metabolism in cultured adult rat cardiac fibroblasts: response to agiotensin II and aldosterone. J. Mol. Cell Cardiol. 26: 809-820].
The intracellular pH value of an individual cell was measured using the fluorescent marker BCECF (2′,7′-bis-(2-carboxymethyl)-5-[and -6]-carboxyfluorescein from Molecular Probes), the fluorescent intensity of which is pH-dependent. The cardiac fibroblasts were grown on glass microscope slides until at subconfluence, and were then laden with BCECF-acetoxymethyl ester. The fibroblasts thus pre-treated were washed with PBS and then preincubated with various test solutions and then rinsed. In so doing, the intracellular fluorescence of the BCECF was measured using an inverted microscope, to which a “PTI 710 Photon Counting Detection” system (Photon Technology International) with two monochromators was connected. The data were analysed using a fluorescence spectrometer. The measurement results—fluorescence signals—were converted into pH values using a calibration curve.
Composition of the bicarbonate solution: 118 mmole/liter NaCl, 4.7 mmole/liter KCl, 2.5 mmole/liter CaCl2×2H2O, 1.6 mmole/liter MgCl2×7H2O, 24.9 mmole/liter NaHCO3, 1.2 mmole/liter KH2PO4, 5.6 mmole/liter glucose and either 0.4% or 10% FCS, equilibrated with 20% O2 and 5% CO2 for at least 30 minutes to ensure a pH value of 7.4.
The individual test solutions were based on the above bicarbonate solution and contained the following concentration of the compounds below: • 10^−6 mole/liter guanabenz (Sigma) • 10^−6 mole/liter to 10^−9 mole/liter moxonidine • 10^−3 mole/liter H2-DIDS (Molecular Probes) Intracellular alkalization of the cells was achieved by rinsing with a 5 mmole/liter NH4Cl-containing bicarbonate solution (NH4Cl pulse). Subsequent washing-out of the NH4Cl by rinsing the cells with fresh bicarbonate solution results in intracellular acidification.
The effect of moxonidine, DIDS and guanabenz on the change in the intracellular pH value after alkalization of the cells is determined by an NH4Cl pulse. To this end, the BCECF-laden cardiac fibroblasts were preincubated for 30 minutes with a bicarbonate test solution containing one of the above compounds. Then the response of the intracellular pH value of the cells thus pre-treated to a 5 mmole/liter NH4Cl pulse was measured over time. Also the change in pH value which took place during the subsequent washing-out of the NH4Cl (intracellular acidification) was further measured over time. […] To quantify the inhibitory effects, the percentage of the change in pH value still present relative to the maximum alkaline or maximum acidic pH value achieved was calculated.

The test system of test [2] is Na+/bicarbonate (Na+/HCO3−) cotransporter (NBC) protein or/and Na+-dependent chloride-bicarbonate (Cl−/HCO3−) exchanger (NDAE and N(D)CBE) protein. Briefly: Intracellular pH recovery after acidification (NH4Cl wash-out) in cardiac fibroblasts. It is filed as cell-based, Wistar rats. The note with it: recovery from intracellular acidification. The method, then: as §1, with “Cardiac fibroblasts, which grew in a typical monolayer, were cultivated by standard cell culture techniques and at subconfluence were transferred into new flasks in a 1:3 ratio [Brilla et al. (1994) Collagen metabolism in cultured adult rat cardiac fibroblasts: response to agiotensin II and aldosterone. J. Mol. Cell Cardiol. 26: 809-820].” left out
The intracellular pH value of an individual cell was measured using the fluorescent marker BCECF (2′,7′-bis-(2-carboxymethyl)-5-[and -6]-carboxyfluorescein from Molecular Probes), the fluorescent intensity of which is pH-dependent. […] In so doing, the intracellular fluorescence of the BCECF was measured using an inverted microscope, to which a “PTI 710 Photon Counting Detection” system (Photon Technology International) with two monochromators was connected. The data were analysed using a fluorescence spectrometer. The measurement results—fluorescence signals—were converted into pH values using a calibration curve. […]

For the molecule `O=S(=O)(O)c1cc(N=C=S)ccc1C=Cc1ccc(N=C=S)cc1S(=O)(=O)O` [DIDS, 4,4′-diisothiocyanostilbene-4,4′-disulfonate], the “recovery after the intracellular alkalization, compared with guanabenz-pre-treated or non-pre-treated cells” value in test [1] is “considerably longer recovery”.
For `N=C(N)N/N=C/c1c(Cl)cccc1Cl` [Guanabenz], in test [1], the “percentage of the change in pH value still present, relative to the maximum alkaline pH value reached, after 5 min” value was 20.6 ± 5.2% and the “percentage of the change in pH value still present, relative to the maximum alkaline pH value reached, after 8 min” value came out at 9.9 ± 2.7%.
As to `COc1nc(C)nc(Cl)c1NC1=NCCN1` [Moxonidine, 4-chloro-5-[(4,5-dihydro-1H-imidazol-2-yl)-amino]-6-methoxy-2-methylpyrimidine], the “inhibition of NBC or/and NDAE and N(D)CBE proteins (result in words)” value in test [2] is “selective inhibitor”. Moreover, in test [1], the “percentage of the change in pH value still present, relative to the maximum alkaline pH value reached, after 5 min” value was found to be 58.8 ± 12.0%; the “percentage of the change in pH value still present, relative to the maximum alkaline pH value reached, after 8 min” value is 41.9 ± 24.4%; the “recovery after the intracellular alkalization, compared with guanabenz-pre-treated or non-pre-treated cells” value is “considerably longer recovery”. In test [1] (concentration of 10^−8 mole/liter), the “inhibitory effect on the recovery from the alkaline pH (dose-effect curve)” value is recorded as “significantly inhibitory action”.
